# Active and inactive are the calls of the source.
# Columns and labels:
# Assay type in all cases: functional
# Protein RecA = target: T1, Protein RecA (Mycobacterium tuberculosis, UniProt P9WHJ3); experiment: Fluorescence Cell-Free Homogeneous Dose Retest to Identify Inhibitors of RecA-Intein Splicing Activity. [Related pubchem assays (depositor defined):AID2097, AID2223, AID489010, AID492950]
# T1 sequence (P9WHJ3 whole entry): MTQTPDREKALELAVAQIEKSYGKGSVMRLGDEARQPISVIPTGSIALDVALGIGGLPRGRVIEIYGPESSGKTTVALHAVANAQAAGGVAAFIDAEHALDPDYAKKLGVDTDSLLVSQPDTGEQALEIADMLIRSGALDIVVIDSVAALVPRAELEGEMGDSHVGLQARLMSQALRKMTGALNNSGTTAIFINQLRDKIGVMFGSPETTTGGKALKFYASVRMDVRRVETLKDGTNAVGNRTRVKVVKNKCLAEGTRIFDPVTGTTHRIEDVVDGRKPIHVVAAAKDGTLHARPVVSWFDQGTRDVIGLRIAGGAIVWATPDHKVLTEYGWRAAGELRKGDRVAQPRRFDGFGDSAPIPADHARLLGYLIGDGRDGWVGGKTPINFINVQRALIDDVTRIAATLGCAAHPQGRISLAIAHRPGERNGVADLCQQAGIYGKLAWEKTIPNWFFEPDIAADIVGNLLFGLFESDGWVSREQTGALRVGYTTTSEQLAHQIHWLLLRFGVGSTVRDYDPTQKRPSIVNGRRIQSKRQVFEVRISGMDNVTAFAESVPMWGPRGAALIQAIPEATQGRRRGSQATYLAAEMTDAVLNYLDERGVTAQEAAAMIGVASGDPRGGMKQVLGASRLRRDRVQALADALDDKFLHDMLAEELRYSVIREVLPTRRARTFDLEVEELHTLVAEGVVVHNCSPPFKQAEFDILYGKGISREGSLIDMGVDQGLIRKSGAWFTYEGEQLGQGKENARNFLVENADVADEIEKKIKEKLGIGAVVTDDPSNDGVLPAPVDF
# [1] = target: T2, Sentrin-specific protease 6 (Homo sapiens, UniProt Q9GZR1);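 further: Luminescence-based dose-response confirmatory assay of SENP6 inhibition, following up an ultra-high-throughput screen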
# T2 sequence (Q9GZR1 whole entry): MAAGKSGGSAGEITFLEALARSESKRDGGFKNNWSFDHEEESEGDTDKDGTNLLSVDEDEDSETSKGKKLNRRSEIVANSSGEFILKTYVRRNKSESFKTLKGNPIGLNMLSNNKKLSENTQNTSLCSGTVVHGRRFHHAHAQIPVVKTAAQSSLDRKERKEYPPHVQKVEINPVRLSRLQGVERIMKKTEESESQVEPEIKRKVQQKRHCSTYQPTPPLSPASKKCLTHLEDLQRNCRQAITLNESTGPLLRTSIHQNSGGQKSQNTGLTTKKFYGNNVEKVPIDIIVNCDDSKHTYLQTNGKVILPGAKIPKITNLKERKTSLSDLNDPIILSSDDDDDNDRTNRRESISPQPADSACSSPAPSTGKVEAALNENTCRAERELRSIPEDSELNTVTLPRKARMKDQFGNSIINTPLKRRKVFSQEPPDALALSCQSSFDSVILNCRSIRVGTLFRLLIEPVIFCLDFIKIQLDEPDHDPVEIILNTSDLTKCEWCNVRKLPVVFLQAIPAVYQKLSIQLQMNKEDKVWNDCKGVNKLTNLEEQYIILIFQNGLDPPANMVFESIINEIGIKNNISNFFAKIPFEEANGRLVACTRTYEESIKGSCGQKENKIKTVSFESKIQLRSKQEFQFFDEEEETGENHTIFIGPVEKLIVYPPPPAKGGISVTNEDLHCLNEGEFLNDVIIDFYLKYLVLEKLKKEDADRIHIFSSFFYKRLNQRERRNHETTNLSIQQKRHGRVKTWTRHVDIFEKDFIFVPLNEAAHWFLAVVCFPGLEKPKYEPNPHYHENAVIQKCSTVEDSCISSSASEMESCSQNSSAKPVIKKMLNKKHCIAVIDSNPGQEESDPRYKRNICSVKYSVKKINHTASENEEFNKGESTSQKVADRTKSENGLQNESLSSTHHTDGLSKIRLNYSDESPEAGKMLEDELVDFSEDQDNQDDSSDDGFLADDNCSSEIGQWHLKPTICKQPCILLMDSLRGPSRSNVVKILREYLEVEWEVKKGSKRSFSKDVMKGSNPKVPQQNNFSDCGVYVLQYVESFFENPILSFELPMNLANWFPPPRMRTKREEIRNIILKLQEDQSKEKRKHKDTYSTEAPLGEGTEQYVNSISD
# [2] = target: T3, Sentrin-specific protease 7 (Homo sapiens, UniProt Q9BQF6);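 further: Luminescence-based dose-response confirmation of ultra-high-throughput screening hits, measuring inhibition of SENP7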
# T3 sequence (Q9BQF6 whole entry): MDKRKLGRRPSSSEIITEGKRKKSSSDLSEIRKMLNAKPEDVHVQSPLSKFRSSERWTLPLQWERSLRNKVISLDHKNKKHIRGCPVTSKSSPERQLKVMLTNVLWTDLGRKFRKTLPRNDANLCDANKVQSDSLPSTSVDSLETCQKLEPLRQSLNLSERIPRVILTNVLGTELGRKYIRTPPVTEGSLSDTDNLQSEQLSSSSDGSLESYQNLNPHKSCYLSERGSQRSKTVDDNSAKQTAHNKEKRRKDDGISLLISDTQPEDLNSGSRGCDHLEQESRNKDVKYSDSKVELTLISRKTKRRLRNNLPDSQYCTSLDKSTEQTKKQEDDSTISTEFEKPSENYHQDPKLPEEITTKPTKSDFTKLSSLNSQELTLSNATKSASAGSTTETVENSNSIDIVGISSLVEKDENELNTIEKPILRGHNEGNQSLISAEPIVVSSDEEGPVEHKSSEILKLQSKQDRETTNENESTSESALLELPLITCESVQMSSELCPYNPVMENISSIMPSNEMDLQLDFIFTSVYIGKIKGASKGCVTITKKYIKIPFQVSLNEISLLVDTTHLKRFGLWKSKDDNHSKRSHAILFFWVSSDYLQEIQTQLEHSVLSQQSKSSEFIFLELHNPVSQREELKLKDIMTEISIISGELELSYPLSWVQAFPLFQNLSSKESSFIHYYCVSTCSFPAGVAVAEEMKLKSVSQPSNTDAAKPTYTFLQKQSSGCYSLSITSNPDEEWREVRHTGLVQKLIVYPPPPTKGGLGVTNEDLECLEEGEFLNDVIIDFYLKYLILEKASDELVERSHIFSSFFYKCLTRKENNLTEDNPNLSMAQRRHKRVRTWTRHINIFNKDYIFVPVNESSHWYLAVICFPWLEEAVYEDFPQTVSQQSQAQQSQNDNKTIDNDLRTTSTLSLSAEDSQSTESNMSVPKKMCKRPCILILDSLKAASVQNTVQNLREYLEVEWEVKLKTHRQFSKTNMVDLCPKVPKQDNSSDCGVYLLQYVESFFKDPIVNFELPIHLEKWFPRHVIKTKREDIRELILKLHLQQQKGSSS
# [3] = target: Induced myeloid leukemia cell differentiation protein Mcl-1 (Homo sapiens, UniProt Q07820)
# Chain of Induced myeloid leukemia cell differentiation protein Mcl-1 (Q07820 whole entry): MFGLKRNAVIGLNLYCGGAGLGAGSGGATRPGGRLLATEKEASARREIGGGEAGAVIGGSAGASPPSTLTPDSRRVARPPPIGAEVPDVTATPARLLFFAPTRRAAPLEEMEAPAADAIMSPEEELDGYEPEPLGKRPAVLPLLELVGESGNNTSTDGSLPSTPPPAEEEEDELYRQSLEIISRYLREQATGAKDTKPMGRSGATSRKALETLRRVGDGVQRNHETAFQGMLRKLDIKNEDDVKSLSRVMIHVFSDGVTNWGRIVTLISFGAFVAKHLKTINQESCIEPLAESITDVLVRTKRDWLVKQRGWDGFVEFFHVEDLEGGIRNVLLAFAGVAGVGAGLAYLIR
SMILES,EC50 (Protein RecA),IC50 [1],IC50 [2],IC50 [3]
O=c1c2ccccc2nc(/C=C/c2cccnc2)n1Cc1ccccc1,9.92 µM (active),–,–,–
O=C(O)c1ccc(N/N=C/c2ccc(OC(=O)c3ccccc3Cl)cc2)cc1,–,2.16 µM (active),3.74 µM (active),–
NC(=O)C1CCN(C2=C(Cl)C(=O)c3ccccc3C2=O)CC1,0.146 µM (active),5.84 µM (active),17.8 µM (active),> 54 µM (not active)

# — ChEMBL document CHEMBL1201862, “PubChem BioAssay data set” (2004)
